Results: US10369146B2, “Phenyl linked quinolinyl modulators of RORγt” (Janssen Pharmaceutica NV, priority 2013, dated 2019)
Where a name gives a salt, the structure may show the parent alone.

What was measured:
human RORγt LBD = molecular target: T1, human RORγt LBD (Homo sapiens, UniProt P51449); test: RORγt reporter assay (GAL4-RORγt LBD luciferase, HEK293T cells); format: cell-based; details: for IC50 / RORγt reporter Assay, % inhibition @ 6 μM: HEK293T cells; for IC50: 24 hours compound treatment, firefly/renilla luciferase ratio; for inhibition at 6 µM: HEK-293T, read-out: RORγt reporter Assay, % inhibition @ 6 μM, 6 μM compound, HEK293T cells; for RORγt reporter Assay, % inhibition @ 6 μM: 6 μM compound
T1 construct: expressed in transfected cells; host or cells: HEK293T
T1 sequence (P51449 258-518): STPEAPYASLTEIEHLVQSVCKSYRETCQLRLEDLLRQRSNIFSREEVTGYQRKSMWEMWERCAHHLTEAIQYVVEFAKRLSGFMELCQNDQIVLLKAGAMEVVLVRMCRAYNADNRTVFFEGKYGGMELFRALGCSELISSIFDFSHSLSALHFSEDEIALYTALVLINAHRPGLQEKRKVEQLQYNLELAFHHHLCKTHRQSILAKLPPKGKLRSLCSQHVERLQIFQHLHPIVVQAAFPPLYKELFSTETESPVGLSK
Description: A reporter assay was used to test functional activity of RORγt modulatory compounds on transcriptional activation driven by the RORγt LBD. Cells used in the assay were co-transfected with two constructs. The first construct, pBIND-RORγt LBD, contained the wild type human RORγt LBD fused to the DNA binding domain of the GAL4 protein. The second construct, pGL4.31 (Promega Cat no. C935A), contained multiple GAL4 responsive DNA elements upstream of firefly luciferase. […] The mutant construct was called pBIND-RORγt-AF2.
The pBIND vector contains the GAL4 DNA Binding Domain (GAL4 DBD) and the renilla luciferase gene under control of the SV40 promoter. Renilla luciferase expression serves as a control for transfection efficiency and cell viability.
The reporter assay was performed by transiently transfecting HEK293T cells with 5 μg of pBIND-RORγt LBD or pBIND-RORγt LBD-AF2 and 5 μg pGL4.31 (Promega Cat no. C935A) using Fugene 6 (Invitrogen Cat no. E2691) at a 1:6 ratio of DNA:Fugene 6 in a T-75 flask in which cells were at least 80% confluent. Twenty four hours after bulk transfection, cells were plated into 96-well plates at 50,000 cells/well in phenol-red free DMEM containing 5% Lipid Reduced FCS and Pen/Strep. Six hours after plating, cells were treated with compounds for 24 hours. Media was removed and cells were lysed with 50 μL 1×Glo Lysis Buffer (Promega). Dual Glo Luciferase Reagent (50 μL/well) was then added and firefly luciferase luminescence was read on an Envision after a ten minute incubation. Finally, Stop and Glo reagent (50 IAL/well) was added and renilla luciferase luminescence was read on an Envision instrument after a ten minute incubation. To calculate the effect of compounds on RORγt activity, the ratio of firefly to renilla luciferase was determined and plotted against compound concentration. Agonist compounds increase RORγt-driven luciferase expression, and antagonist or inverse agonist compounds decrease luciferase expression.

[1] = system: IL-17 production by CD4 T cells; test: Human Th17 assay (IL-17 production by CD4 T cells under Th17 differentiation); format: cell-based; details: 3 days, IL-17 in supernatant
Method: The human Th17 assay tests the effect of RORγt modulatory compounds on IL-17 production by CD4 T cells under conditions which favor Th17 differentiation. Total CD4^+ T cells were isolated from the peripheral blood mononuclear cells (PBMC) of healthy donors using a CD4^+ T cell isolation kit II, following the manufacturer's instructions (Miltenyi Biotec). […] 50 μL of compound at titrated concentrations in DMSO were added into each well at final DMSO concentration at 0.2%. Cells were incubated for 1 hour, then 50 μL of Th17 cell differentiation medium was added to each well. The final concentrations of antibodies and cytokines (R&D Systems) in differentiation medium were: 3×10^6/mL anti-CD3/CD28 beads (prepared using human T cell activation/expansion kit, Miltenyi Biotec), 10 μg/mL anti-IL4, 10 μg/mL anti-IFNγ, 10 ng/mL IL1β, 10 ng/mL IL23, 50 ng/mL IL6, 3 ng/mL TGFβ and 20 U/mL IL2. Cells were cultured at 37° C. and 5% CO2 for 3 days. Supernatants were collected and the accumulated IL-17 in culture was measured by using MULTI-SPOT® Cytokine Plate following manufacture's instruction (Meso Scale Discovery). The plate was read using Sector Imager 6000, and IL-17 concentration was extrapolated from the standard curve. The IC50s were determined by GraphPad.

[2] = molecular target: T2, human RORγt ligand binding domain (RORγt LBD) (Homo sapiens, UniProt P51449); test: RORγt ThermoFluor® assay (thermal shift binding); details: RORγt LBD, 1,8-ANS dye, pH 7.0; Kd estimated from thermal shift
T2 construct: His-tag (N); TurboTEV protease cleavage site (ENLYFQG) (N); made in house; host or cells: E. coli (pHIS1, modified pET vector)
T2 sequence (P51449 with tags, fused parts or gaps): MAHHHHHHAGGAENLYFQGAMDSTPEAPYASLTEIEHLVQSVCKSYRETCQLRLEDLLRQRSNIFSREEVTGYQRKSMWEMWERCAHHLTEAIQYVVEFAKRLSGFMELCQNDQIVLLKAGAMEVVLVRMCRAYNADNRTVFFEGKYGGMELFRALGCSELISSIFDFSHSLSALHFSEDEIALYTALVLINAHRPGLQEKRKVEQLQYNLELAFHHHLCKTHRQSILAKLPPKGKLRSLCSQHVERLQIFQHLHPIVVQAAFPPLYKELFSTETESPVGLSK
Method: This approach is applicable to a wide variety of systems, and rigorous in theoretical interpretation through quantitation of equilibrium binding constants (KD).
The shift in the melting point described as a ΔTm is proportional to the concentration and affinity of the ligand.
Protein and compound solutions are dispensed into black 384-well polypropylene PCR microplates (Abgene) and overlayed with silicone oil (1 μL, Fluka, type DC 200) to prevent evaporation.
Bar-coded assay plates are robotically loaded onto a thermostatically controlled PCR-type thermal block and then heated at a typical ramp-rate of 1° C./min for all experiments. Fluorescence was measured by continuous illumination with UV light (Hamamatsu LC6) supplied via fiber optic and filtered through a band-pass filter (380-400 nm; >6 OD cutoff). Fluorescence emission of the entire 384-well plate was detected by measuring light intensity using a CCD camera (Sensys, Roper Scientific) filtered to detect 500±25 nm, resulting in simultaneous and independent readings of all 384 wells. Images were collected at each temperature, and the sum of the pixel intensity in a given area of the assay plate was recorded versus temperature. Reference wells contained RORγt without compounds, and the assay conditions were as follows: • 0.065 mg/mL RORγt • 60 μM 1,8-ANS • 100 mM Hepes, pH 7.0 • 10 mM NaCl • 2.5 mM GSH • 0.002% Tween-20
Project compounds were arranged in a pre-dosed mother plate (Greiner Bio-one) wherein compounds are serially diluted in 100% DMSO by 1:2 from a high concentration of 10 mM over 12 columns within a series (column 12 is a reference well containing DMSO, no compound). The compounds were robotically dispensed directly into assay plates (1×=46 nL) using a Hummingbird capillary liquid handling instrument (Digilab). Following compound dispense, protein and dye in buffer was added to achieve the final assay volume of 3 μL, followed by 1 μL of silicone oil.

Structure (SMILES)	IC50 (human RORγt LBD)	Kd [2]	RORγt reporter Assay, % inhibition @ 6 μM (human RORγt LBD)	further results
COc1nc2ccc(C(O)(c3cncn3C)C3CCN(C(C)=O)CC3)cc2c(C#N)c1-c1cccc(C(F)(F)F)c1 (single isomer, unassigned) [Example 2c, 6-((1-Acetylpiperidin-4-yl)(hydroxy)(1-methyl-1H-imidazol-5-yl)methyl)-2-methoxy-3-(3-(trifluoromethyl)phenyl)quinoline-4-carbonitrile]	170 nM	–	–	–
Cc1cc(C(O)(c2ccc(C(F)(F)F)nc2)c2cncn2C)cc2c(C#N)c(-c3ccccc3)c(C#N)nc12 (single isomer, unassigned) [Example 25c, 6-(Hydroxy(1-methyl-1H-imidazol-5-yl)(6-(trifluoromethyl)pyridin-3-yl)methyl)-8-methyl-3-phenylquinoline-2,4-dicarbonitrile]	–	–	–	IC50 ([1]; Homo sapiens, CD4+ T, 72 h): 160 nM
CC(=O)N1CCC(C(O)(c2cccnc2)c2ccc3nc(C(F)(F)F)c(-c4ccccc4)c(C#N)c3c2)CC1 (single isomer, unassigned) [Example 30a, 6-((1-Acetylpiperidin-4-yl)(hydroxy)(pyridin-3-yl)methyl)-3-phenyl-2-(trifluoromethyl)quinoline-4-carbonitrile.TFA]	110 nM	23 nM	–	inhibition at 6 µM (human RORγt LBD): 91%
CC(=O)N1CCC(C(O)(c2cccnc2)c2ccc3nc(C(F)(F)F)c(-c4ccccc4)c(C#N)c3c2)CC1 (single isomer, unassigned) [Example 30b, 6-((1-Acetylpiperidin-4-yl)(hydroxy)(pyridin-3-yl)methyl)-3-phenyl-2-(trifluoromethyl)quinoline-4-carbonitrile]	49 nM	300 nM	95%	IC50 [1]: 57 nM
CC(=O)N1CCC(C(O)(c2cccnc2)c2ccc3nc(C(F)(F)F)c(-c4ccccc4)c(C#N)c3c2)CC1 (single isomer, unassigned) [Example 30c, 6-((1-Acetylpiperidin-4-yl)(hydroxy)(pyridin-3-yl)methyl)-3-phenyl-2-(trifluoromethyl)quinoline-4-carbonitrile]	140 nM	9 nM	93%	IC50 [1]: 2200 nM
Cn1cncc1C(O)(c1ccc(Cl)cc1)c1ccc2nc(C(F)(F)F)c(-c3ccccc3)c(C#N)c2c1 (single isomer, unassigned) [Example 31a, 6-((4-Chlorophenyl)(hydroxy)(1-methyl-1H-imidazol-5-yl)methyl)-3-phenyl-2-(trifluoromethyl)quinoline-4-carbonitrile.TFA]	150 nM	–	–	inhibition at 6 µM (human RORγt LBD): 102%
Cn1cncc1C(O)(c1ccc(Cl)cc1)c1ccc2nc(C(F)(F)F)c(-c3ccccc3)c(C#N)c2c1 (single isomer, unassigned) [Example 31b, 6-((4-Chlorophenyl)(hydroxy)(1-methyl-1H-imidazol-5-yl)methyl)-3-phenyl-2-(trifluoromethyl)quinoline-4-carbonitrile]	42 nM	5 nM	103%	IC50 ([1]; Homo sapiens, CD4+ T, 72 h): 20 nM
Cn1cncc1C(O)(c1ccc(Cl)cc1)c1ccc2nc(C(F)(F)F)c(-c3ccccc3)c(C#N)c2c1 (single isomer, unassigned) [Example 31c, 6-((4-Chlorophenyl)(hydroxy)(1-methyl-1H-imidazol-5-yl)methyl)-3-phenyl-2-(trifluoromethyl)quinoline-4-carbonitrile]	1600 nM	3300 nM	85%	–
COc1c(-c2ccccc2)c(Cl)nc2ccc(C(O)(c3cnnn3C)c3cnc(C)n3C)cc12 (single isomer, unassigned) [Example 40b, (2-Chloro-4-methoxy-3-phenylquinolin-6-yl)(1,2-dimethyl-1H-imidazol-5-yl)(1-methyl-1H-1,2,3-triazol-5-yl)methanol]	680 nM	150 nM	–	–
COc1c(-c2ccccc2)c(Cl)nc2ccc(C(O)(c3cnnn3C)c3cnc(C)n3C)cc12 (single isomer, unassigned) [Example 40c, (2-Chloro-4-methoxy-3-phenylquinolin-6-yl)(1,2-dimethyl-1H-imidazol-5-yl)(1-methyl-1H-1,2,3-triazol-5-yl)methanol]	190 nM	120 nM	–	–
Cn1cncc1C(O)(c1ccc(Cl)cc1)c1ccc2nc(Cl)c(-c3ccccc3)c(Cl)c2c1 (stereo not shown) [Example 65, (4-Chlorophenyl)(2,4-dichloro-3-phenylquinolin-6-yl)(1-methyl-M-imidazol-5-yl)methanol]	–	–	–	IC50 ([1]; 72 h): 1800 nM
Cc1nc(C)c(C(O)(c2ccc3nc(Cl)c(-c4ccccc4)c(Cl)c3c2)c2cncn2C)s1 (stereo not shown) [Example 68, (2,4-Dichloro-3-phenylquinolin-6-yl)(2,4-dimethylthiazol-5-yl)(1-methyl-1H-imidazol-5-yl)methanol]	–	–	–	IC50 ([1]; 72 h): 20 nM
